Reference: patent US20090208508A1, “NOVEL USE OF UBIQUITIN C-TERMINAL HYDROLASE-L1” (SK CORPORATION, priority 2005, published 2009)

Experiments:
[1] = system: UCH-L1; test: Preliminary experiments: UCH-L1 expression level with siRNA on mouse-base sequences; format: cell-based
[2] = system: UCH-L1; test: Western blotting of UCH-L1 expression in B16F10 stable cells expressing UCH-L1 specific RNAi (lentivirus); format: cell-based, mouse; settings: Zeocin-selected, in comparison with normal B16F10 cells and cells expressing irrelevant RNAi (SEQ ID No. 3)
Description: The expression level of UCH-L1 in B16F10 mouse melanoma cell line was analyzed by using the Western blotting with anti-UCH-L1 antibody in comparison with that of H157 lung cancer cell line overexpressing UCH-L1. It was determined that UCH-L1 is expressed also in B16F10 cell lines.
B16F10 cells (2.5×10^5 cells, 70˜80% confluency) were seeded on the cell culture dish. After 24 h, these cells were infected with 1 mL of lentivirus (VCA™, Vectorcorea, Inc., Seoul, Korea) expressing irrelevant RNAi or UCH-L1 specific RNAi. 500 μL ( ? ) (virus titer 1[…]10^7 IFU/mL) of lentivirus expressing the sequence specific shRNAi (SEQ ID Nos. 3, 8, 9, and 10) was used for infection of 2.5×10^5 of B16F10 cells.
Polyburene ([…]) was added thereto, then the cell culture dish was shaken slowly up and down. After incubation for 6 h at 37[…] under 5% CO2, the virus soup was changed with the RPMI-1640 supplemented with 10% FBS. B16F10 cells were infected at twice with lentivirus on 24th hour after the first infection. However the incubation time for second infection was 12 h, not 6 h. After 24 h from the second infection, B16F 10 cells were harvested with trypsin and subcultured on the other dish by diluting the cells with RPMI-1640 (1/16 dilution).
After 24 h, cells were maintained with the cell culture media with 5 μg/mL of Zeocin. For about 14 days, the cell culture media was changed with fresh media containing same amount of Zeocin every three days. On 14th day after start of selection with Zeocin, only cells having the resistance to Zeocin were survival and these cells were infected with lentivirus stably expressing UCH-L1 specific RNAi (shRNAi, short hairpin RNA). On 14th day after start of selection with Zeocin, the colony was formed by the cells having the resistance to Zeocin. The colonized cells were selected and re-subcultured with fresh media. From this method, we could prepare UCH-L1 expression reduced stable cell lines. […]

[3] = system: B16F10 mouse melanoma cells; test: Experimental pulmonary metastasis: B16F10 stable cells injected into tail vein, black colonies on lung surface counted; format: in vivo, BALB/C nude mouse; settings: 1x10^6 cells single-injected into tail vein, 14th day after injection, vs control B16F10 cells expressing irrelevant RNAi
Description: We tried to elucidate whether UCH-L1 is a key target molecule related to cancer metastasis through the experimental metastasis using animal model. Normal B16F10 mouse melanoma cells are highly invasive and its first target organ in metastatic process is lung. Using lentivirus-based system, we prepared the B16F10 stable cells in which UCH-L1 was knock-downed.
After preparing B16F10 stable cells, we examined whether the metastasis to lung was decreased when the B16F 10 stable cells were injected intravenously into the tail vein.
As stated above, after the UCH-L1 expression knock-downed B 16F 10 stable cells were selected with Zeocin, these cells (1[…]10^6 cells) were single-injected into the tail vein of BALB/C nude mouse. On 14th day after injection, the metastasis to lung was investigated. (For control set, BALB/C mouse were injected with same amount of B16F10 stable cells expressing irrelevant RNAi (control lentiviral vector))

[4] = system: UCH-L1; test: Preliminary experiments: UCH-L1 expression level with siRNA on human-base sequences; format: cell-based

Substance: ha: UCH-L1 specific shRNAi (SEQ ID No. 8), target sequence common to human and mouse, expressed by lentivirus (guide CCCGAGATGCTGAACAAAG; listed as Homo sapiens)
- expression level of UCH-L1 [1]: effectively reduced
- expression of UCH-L1 (Western blotting) [2]: reduced
- reduction of metastasis to lung (black spherical colonies on lung surface) [3]: 92%
- expression level of UCH-L1 [4]: effectively reduced

Substance: mb: UCH-L1 specific shRNAi (SEQ ID No. 10), mouse target sequence, expressed by lentivirus (guide CCTAAAGTTTACTTCATGAAG; listed as Mus musculus)
- expression level of UCH-L1 [1]: effectively reduced
- expression of UCH-L1 (Western blotting) [2]: reduced
- reduction of metastasis to lung (black spherical colonies on lung surface) [3]: 62%

Substance: ma: UCH-L1 specific shRNAi (SEQ ID No. 9), mouse target sequence, expressed by lentivirus (guide AGCTGAAGCCGATGGAGATTA; listed as Mus musculus)
- expression of UCH-L1 (Western blotting) [2]: not reduced
